Assays:
[1] = target: T1, Signal transducer and activator of transcription 1-alpha/beta (Homo sapiens, UniProt P42224); experiment: Inhibition of IFNgamma-induced STAT1 phosphorylation in human Cal33 cells by Western blot analysis
T1 sequence (P42224 whole entry): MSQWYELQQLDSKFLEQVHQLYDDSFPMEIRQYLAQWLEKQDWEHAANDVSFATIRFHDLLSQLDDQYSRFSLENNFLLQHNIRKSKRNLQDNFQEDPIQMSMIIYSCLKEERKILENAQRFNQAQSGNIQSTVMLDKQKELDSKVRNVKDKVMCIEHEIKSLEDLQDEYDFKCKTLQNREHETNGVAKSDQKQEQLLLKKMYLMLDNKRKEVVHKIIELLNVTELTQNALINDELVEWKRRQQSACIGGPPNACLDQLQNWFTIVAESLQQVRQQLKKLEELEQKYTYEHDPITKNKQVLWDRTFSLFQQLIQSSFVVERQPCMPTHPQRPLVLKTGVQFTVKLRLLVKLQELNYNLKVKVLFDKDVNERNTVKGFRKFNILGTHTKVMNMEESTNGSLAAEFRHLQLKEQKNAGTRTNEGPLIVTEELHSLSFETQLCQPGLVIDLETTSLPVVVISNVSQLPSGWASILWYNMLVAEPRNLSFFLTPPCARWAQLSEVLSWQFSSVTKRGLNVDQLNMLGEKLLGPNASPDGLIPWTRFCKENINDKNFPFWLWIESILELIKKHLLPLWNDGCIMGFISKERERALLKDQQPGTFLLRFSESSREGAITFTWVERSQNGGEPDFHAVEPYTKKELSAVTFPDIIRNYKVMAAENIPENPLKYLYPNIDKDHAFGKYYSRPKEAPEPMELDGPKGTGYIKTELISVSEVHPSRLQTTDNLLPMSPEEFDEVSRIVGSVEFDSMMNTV

[2] = Inhibition of IL-6-induced STAT3 phosphorylation in human Cal33 cells assessed as nuclear translocation by Western blot analysis

| Compound | IC50 [1] | IC50 [2] |
| --- | --- | --- |
| COc1ccc2c(C)nc(Nc3nc(C)cc(O)n3)nc2c1 | > 50 µM | – |
| Cc1nc(NCc2ccccc2)nc2ccccc12 | > 30 µM | > 30 µM |
| Cc1nc(NCCc2c[nH]c3ccccc23)nc2ccccc12 | > 30 µM | > 30 µM |
| CC1=CC(C)(C)N=C(Nc2nc(C)c3cc(C)ccc3n2)N1 | > 50 µM | – |
| Cc1nc(Nc2ccccc2)nc2ccccc12 | > 30 µM | – |
| CCOc1ccc2nc(NC3=NC(C)=CC(C)(C)N3)nc(C)c2c1 | > 50 µM | – |
| Cc1cc2nc(Nc3nc(=O)c(C)c(C)[nH]3)nc(C)c2cc1C | > 50 µM | 10.4 µM |
| Cc1cc(=O)nc(Nc2nc(C)c3cc4c(cc3n2)OCO4)[nH]1 | > 50 µM | > 50 µM |
| Cc1ccc2c(C)nc(Nc3nc(=O)c(C)c(C)[nH]3)nc2c1 | 35.2 µM | – |
| Cc1cc(=O)nc(Nc2nc(C)c3cc(C)c(C)cc3n2)[nH]1 | > 50 µM | – |
| COc1ccc2nc(Nc3nc(=O)c(Cc4ccccc4)c(C)[nH]3)nc(C)c2c1 | 50 µM | – |
| Cc1ccc2c(C)nc(Nc3nc(=O)cc(C)[nH]3)nc2c1 | 39.7 µM | – |
| Cc1nc(NCCN2CCOCC2)nc2ccccc12 | > 30 µM | > 30 µM |
| Cc1nc(NCc2ccc3c(c2)OCO3)nc2ccccc12 | > 30 µM | > 30 µM |
| COc1ccc2nc(Nc3nc(=O)cc(C)[nH]3)nc(C)c2c1 | > 50 µM | 34.9 µM |
| Cc1[nH]c(Nc2nc(C)c3cc4c(cc3n2)OCO4)nc(=O)c1Cc1ccccc1 | > 50 µM | > 50 µM |
| Cc1[nH]c(Nc2nc(C)c3cc4c(cc3n2)OCO4)nc(=O)c1C | > 50 µM | > 50 µM |
| Cc1nc(Nc2nc(=O)cc(-c3ccccc3)[nH]2)nc2cc3c(cc12)OCO3 | > 50 µM | 13 µM |
| C=CCc1c(C)[nH]c(Nc2nc(C)c3cc(C)cc(C)c3n2)nc1=O | > 50 µM | – |
| Cc1cc(C)c2nc(Nc3nc(=O)cc(-c4ccccc4)[nH]3)nc(C)c2c1 | > 50 µM | – |
| Cc1nc(NC2CCCCC2)nc2ccccc12 | > 30 µM | – |
| Cc1nc(Nc2ccccn2)nc2ccccc12 | > 30 µM | – |
| Cc1ccc(CNc2nc(C)c3ccccc3n2)o1 | > 30 µM | – |
| Cc1nc(NCc2cccc3ccccc23)nc2ccccc12 | > 30 µM | – |
| Cc1cc(C)c2nc(Nc3nc(C)c(C)c(O)n3)nc(C)c2c1 | > 50 µM | 6.4 µM |
| CCOc1ccc2nc(Nc3nc(=O)cc(-c4ccccc4)[nH]3)nc(C)c2c1 | > 50 µM | – |
| CCOc1ccc2nc(Nc3nc(=O)cc(C)[nH]3)nc(C)c2c1 | > 50 µM | – |
| CCOc1ccc2nc(Nc3nc(=O)c(C)c(C)[nH]3)nc(C)c2c1 | > 50 µM | – |
| CCOc1ccc2c(C)nc(NC3=NC(C)=CC(C)(C)N3)nc2c1 [DNDI1417388] | > 50 µM | – |
| CC1=CC(C)(C)N=C(Nc2nc(C)c3cc(C)cc(C)c3n2)N1 [US9211296, Table 7, Compd: 9] | 5.9 µM | – |

From BindingDB's records for doi:10.1016/j.bmcl.2014.09.001 (University of Pittsburgh, 2014)
